ChEMBL document CHEMBL3865818, “4,5-Diaryl-3H-1,2-dithiole-3-thiones and related compounds as combretastatin A-4/oltipraz hybrids: Synthesis, molecular modelling and evaluation as antiproliferative agents and inhibitors of tubulin” (Eur J Med Chem, 2016)
Calls of active or inactive are those of the source. No cut-off for these calls is given here.

Experiments:
[1] = Cell cycle arrest in human KB cells assessed as accumulation at G2/M-phase at 0.2 uM measured after 48 hrs by propidium iodide staining-based flow cytometry (reference value: 23.36%); type: functional
[2] = Cell cycle arrest in human KB cells assessed as accumulation at SubG1-phase at 0.1 uM measured after 60 hrs by propidium iodide staining-based flow cytometry (reference value: 1.24%); type: functional
[3] = Cell cycle arrest in human KB cells assessed as accumulation at SubG1-phase at 0.1 uM measured after 48 hrs by propidium iodide staining-based flow cytometry (reference value: 0.61%); type: functional
[4] = Cell cycle arrest in human KB cells assessed as accumulation at SubG1-phase at 0.1 uM measured after 36 hrs by propidium iodide staining-based flow cytometry (reference value: 0.63%); type: functional
[5] = Cell cycle arrest in human KB cells assessed as accumulation at S-phase measured after 36 hrs by propidium iodide staining-based flow cytometry (reference value: 16.51%); type: functional
[6] = Cell cycle arrest in human KB cells assessed as accumulation at G2/M-phase at 0.2 uM measured after 12 hrs by propidium iodide staining-based flow cytometry (reference value: 30.19%); type: functional
[7] = Cell cycle arrest in human KB cells assessed as accumulation at S-phase at 0.1 uM measured after 48 hrs by propidium iodide staining-based flow cytometry (reference value: 13.32%); type: functional
[8] = Cell cycle arrest in human KB cells assessed as accumulation at SubG1-phase at 0.05 uM measured after 60 hrs by propidium iodide staining-based flow cytometry (reference value: 1.24%); type: functional
[9] = Cell cycle arrest in human KB cells assessed as accumulation at G0/G1-phase at 0.2 uM measured after 60 hrs by propidium iodide staining-based flow cytometry (reference value: 63.85%); type: functional
[10] = tested on: KB; assay: Inhibition of alpha-tubulin in human KB cells assessed as disruption of microtubule formation at 0.2 uM by DAPI staining-based immunofluorescence assay; type: cell-based
[11] = Cell cycle arrest in human KB cells assessed as accumulation at G0/G1-phase at 0.05 uM measured after 24 hrs by propidium iodide staining-based flow cytometry (reference value: 48.52%); type: functional
[12] = Cell cycle arrest in human KB cells assessed as accumulation at S-phase at 0.2 uM measured after 24 hrs by propidium iodide staining-based flow cytometry (reference value: 16.96%); type: functional
[13] = Cell cycle arrest in human KB cells assessed as accumulation at SubG1-phase at 0.2 uM measured after 48 hrs by propidium iodide staining-based flow cytometry (reference value: 0.61%); type: functional
[14] = Cell cycle arrest in human KB cells assessed as accumulation at G2/M-phase at 0.1 uM measured after 36 hrs by propidium iodide staining-based flow cytometry (reference value: 27.34%); type: functional
[15] = Cell cycle arrest in human KB cells assessed as accumulation at G2/M-phase measured after 36 hrs by propidium iodide staining-based flow cytometry (reference value: 27.34%); type: functional
[16] = Cell cycle arrest in human KB cells assessed as accumulation at G0/G1-phase at 0.1 uM measured after 60 hrs by propidium iodide staining-based flow cytometry (reference value: 63.85%); type: functional
[17] = Cell cycle arrest in human KB cells assessed as increase in subG1-peak at 0.2 uM by propidium iodide staining-based flow cytometry; type: functional; conditions: TDE = time-dependent effect
[18] = Cell cycle arrest in human KB cells assessed as accumulation at G0/G1-phase measured after 48 hrs by propidium iodide staining-based flow cytometry (reference value: 58.26%); type: functional
[19] = Cell cycle arrest in human KB cells assessed as accumulation at G0/G1-phase at 0.05 uM measured after 12 hrs by propidium iodide staining-based flow cytometry (reference value: 48.26%); type: functional
[20] = Cell cycle arrest in human KB cells assessed as accumulation at S-phase measured after 48 hrs by propidium iodide staining-based flow cytometry (reference value: 13.32%); type: functional
[21] = Cell cycle arrest in human KB cells assessed as accumulation at SubG1-phase measured after 12 hrs by propidium iodide staining-based flow cytometry (reference value: 1.23%); type: functional
[22] = Cell cycle arrest in human KB cells assessed as accumulation at G0/G1-phase at 0.1 uM measured after 24 hrs by propidium iodide staining-based flow cytometry (reference value: 48.52%); type: functional
[23] = Cell cycle arrest in human KB cells assessed as accumulation at S-phase measured after 60 hrs by propidium iodide staining-based flow cytometry (reference value: 12.66%); type: functional
[24] = Antiproliferative activity against human KB cells measured after 72 hrs by MTT assay; type: functional, cell-based
[25] = Cell cycle arrest in human KB cells assessed as accumulation at S-phase at 0.05 uM measured after 24 hrs by propidium iodide staining-based flow cytometry (reference value: 16.96%); type: functional
[26] = Cell cycle arrest in human KB cells assessed as accumulation at G0/G1-phase measured after 12 hrs by propidium iodide staining-based flow cytometry (reference value: 48.26%); type: functional
[27] = Cell cycle arrest in human KB cells assessed as accumulation at S-phase at 0.05 uM measured after 48 hrs by propidium iodide staining-based flow cytometry (reference value: 13.32%); type: functional
[28] = Cell cycle arrest in human KB cells assessed as accumulation at G2/M-phase measured after 12 hrs by propidium iodide staining-based flow cytometry (reference value: 30.19%); type: functional
[29] = Cell cycle arrest in human KB cells assessed as accumulation at G2/M-phase at 0.05 uM measured after 60 hrs by propidium iodide staining-based flow cytometry (reference value: 18.9%); type: functional
[30] = Cell cycle arrest in human KB cells assessed as accumulation at G0/G1-phase at 0.1 uM measured after 12 hrs by propidium iodide staining-based flow cytometry (reference value: 48.26%); type: functional
[31] = Cell cycle arrest in human KB cells assessed as accumulation at G2/M-phase at 0.1 uM measured after 60 hrs by propidium iodide staining-based flow cytometry (reference value: 18.9%); type: functional
[32] = tested on: KB; assay: Inhibition of alpha-tubulin in human KB cells assessed as induction of mitotic catastrophe by measuring multiple micronuclei formation at 0.2 uM by DAPI staining-based immunofluorescence assay; type: cell-based
[33] = Cell cycle arrest in human KB cells assessed as accumulation at G2/M-phase at 0.05 uM measured after 24 hrs by propidium iodide staining-based flow cytometry (reference value: 28.84%); type: functional
[34] = Cell cycle arrest in human KB cells assessed as accumulation at S-phase at 0.05 uM measured after 60 hrs by propidium iodide staining-based flow cytometry (reference value: 12.66%); type: functional
[35] = Cell cycle arrest in human KB cells assessed as accumulation at S-phase at 0.1 uM measured after 12 hrs by propidium iodide staining-based flow cytometry (reference value: 15.5%); type: functional
[36] = Cell cycle arrest in human KB cells assessed as accumulation at SubG1-phase at 0.1 uM measured after 24 hrs by propidium iodide staining-based flow cytometry (reference value: 0.76%); type: functional
[37] = Cell cycle arrest in human KB cells assessed as accumulation at G2/M-phase at 0.2 uM measured after 60 hrs by propidium iodide staining-based flow cytometry (reference value: 18.9%); type: functional

## COc1ccc(-c2ssc(=O)c2-c2cc(OC)c(OC)c(OC)c2)cc1N
[1]
  Activity: 19.4%
[2]
  Activity: 57.8%
[3]
  Activity: 33.6%
[4]
  Activity: 24.3%
[5]
  Activity: 25.4%
[6]
  Activity: 70.2%
[7]
  Activity: 15.3%
[8]
  Activity: 34.4%
[9]
  Activity: 10.4%
[10]
  Activity: Active
[11]
  Activity: 36.7%
[12]
  Activity: 22.2%
[13]
  Activity: 49.9%
[14]
  Activity: 23.7%
[15]
  Activity: 27.9%
[16]
  Activity: 12.3%
[17]
  Activity: Tde
[18]
  Activity: 11.3%
[19]
  Activity: 43%
[20]
  Activity: 12.6%
[21]
  Activity: 1.85%
[22]
  Activity: 13.1%
[23]
  Activity: 6.78%
[24]
  IC50: 60 nM
[25]
  Activity: 15.5%
[26]
  Activity: 8.18%
[27]
  Activity: 10.9%
[28]
  Activity: 64.4%
[29]
  Activity: 14%
[30]
  Activity: 8.66%
[31]
  Activity: 10%
[32]
  Activity: Active
[33]
  Activity: 36.6%
[34]
  Activity: 8.75%
[35]
  Activity: 21.6%
[36]
  Activity: 16%
[37]
  Activity: 19.9%
